Like-named read-outs stand apart in the source and are kept apart here.
Columns and labels:
HAV = assay type: cell-based, hepatitis A virus, strain HM175; conditions: for reduction of HAV: in plasma
Escherichia coli B = experiment: Initial studies: inactivation of Escherichia coli B with and without aeration of the medium; assay type: cell-based
Excerpt: Light alone, or porphyrin alone, were ineffective.

Klebsiella oxytoca = experiment: Inactivation of Klebsiella oxytoca in human plasma; assay type: cell-based; conditions: 10^−5 M with light (FIG. 7)
[1] = test system: Chinese Hamster Ovary (CHO) cells
poliovirus (PV1) = assay type: cell-based, Poliovirus-1
coliphage MS2 = assay type: cell-based, coliphage MS2 (ATCC 15597-B1); conditions: for log10 reduction of MS2 / reduction of MS2: in NaCl, UV light
E. coli B [2] = assay type: cell-based, Escherichia coli B (ATCC 11303); conditions: for log10 reduction of E. coli B / percentage reduction of E. coli B: 10^−3 M in NaCl, 365 nm UV; for log10 reduction of Escherichia coli B / percentage reduction of Escherichia coli B: 365 nm light
E. coli B [3] = experiment: Inactivation of E. coli B on porphyrin-containing cellulose acetate membranes; assay type: cell-based, Escherichia coli B (ATCC 11303); conditions: cellulose acetate membranes containing the porphyrin, UV light, 100 minutes
Procedure: Cultures of E. coli B (ATCC 11303) were grown the day before an experiment to log phase growth in 50 milliliters of tryptic soy broth (TSB) followed by centrifugation at 3000 rpm for 10 minutes and at 4° C. The supernatant was drawn off and discarded and pellets were resuspended in 10 mL of 0.2 M phosphate buffered saline (PBS; pH 7.2). The centrifugation-resuspension process was repeated for a total of three times. Preparations were kept at 4° C. until ready for use. Bacterial cultures were assayed on tryptic soy agar (TSA) by spot or spread plating duplicate 0.04 to 0.1 ml volumes of the serially diluted preparation onto the agar plates, and was enumerated via colony counts after incubation overnight at 44.5° C. Results are expressed as cfu/ml. On the day of an experiment, the stock preparation was serially diluted in PBS to a target concentration of about […] E. coli cells per milliliter for use on membranes and in solution, respectively. Duplicate 0.1 ml volumes of the experimental samples were spread plated on TSA and incubated overnight at 44.5° C.
When cellulose acetate membranes containing protoporphyrin IX (disodium salt) were exposed to UV light, E. coli B was inactivated by 0.3 log10 cfu/ml in 100 minutes and by about 1.0 log10 (90%) in 300 minutes (FIG. 8).

[4] = 10^−4 M, another experiment (controls 193)
[5] = 10^−4 M, six days, first experiment (controls 271)
[6] = 10^−5 M, another experiment (controls 193)
[7] = 10^−5 M, six days, first experiment (controls 271)

## C[n+]1ccc(-c2c3nc(c(-c4cc[n+](C)cc4)c4ccc([nH]4)c(-c4cc[n+](C)cc4)c4nc(c(-c5cc[n+](C)cc5)c5ccc2[nH]5)C=C4)C=C3)cc1.Cc1ccc(S(=O)(=O)[O-])cc1.Cc1ccc(S(=O)(=O)[O-])cc1.Cc1ccc(S(=O)(=O)[O-])cc1.Cc1ccc(S(=O)(=O)[O-])cc1 [TMPyP4, tetrakis (N-methyl-4-pyridiniumyl) porphine tetratosylate]
HAV; 10^−5M in water, light, 30 min (FIG. 5)
  inactivation of HAV in water: greater than 3 logs
Escherichia coli B; 30 minutes, medium aerated by sparging with air
  inactivation of Escherichia coli B: over 3.7 log
Escherichia coli B; medium not aerated
  inactivation of Escherichia coli B, medium not aerated: No inactivation
Escherichia coli B; porphyrin alone, without light
  effect of porphyrin alone on Escherichia coli B: ineffective
Klebsiella oxytoca
  inactivation of Klebsiella oxytoca: over 5 log10
[1]; [4]
  CHO colony count: no colony forming units detected
[1]; [5]
  CHO colony count: no cells could be detected
[1]; [6]
  CHO colony count: 183 cfu/well
[1]; [7]
  CHO colony count: 322 cfu/well
Poliovirus (PV1)
  poliovirus (PV1) in the absence of light: unaffected
Coliphage MS2; 10^−3 M in PBS, dark
  MS2 incubated in the dark, infectivity assay: not detected
Coliphage MS2; 1 minute
  log10 reduction of MS2: 0.3 log10
  reduction of MS2: 50%
Coliphage MS2; 10 minutes
  log10 reduction of MS2: 0.9 log10
  reduction of MS2: 87%
Coliphage MS2; 60 minutes
  log10 reduction of MS2: > 3.8 log10
  reduction of MS2: > 99.98%
Coliphage MS2; no light (FIG. 3)
  MS2 in the absence of light: unaffected
Coliphage MS2; plasma, no LWUV
  MS2 in porphyrin/plasma mixture not exposed to LWUV: not detectable
E. coli B [2]; 1 minute
  log10 reduction of E. coli B: 1.7 log10
  percentage reduction of E. coli B: 98%
E. coli B [2]; 10 minutes
  log10 reduction of E. coli B: 2.4 log10
  percentage reduction of E. coli B: 99.6%
E. coli B [2]; 30 minutes
  log10 reduction of E. coli B: 3.7 log10
  percentage reduction of E. coli B: 99.98%
E. coli B [2]; 90 minutes
  log10 reduction of E. coli B: > 5.9 log10
E. coli B [2]; 10^−3 M in PBS, dark
  E. coli B incubated in the dark, infectivity assay: not detected
E. coli B [2]; 10^−5 M in PBS, with or without light, one minute (FIG. 9)
  infectivity of E. coli B after treatment: decreased below detection limits

## Cl.Cl.O=S(=O)(O)c1ccc(-c2c3nc(c(-c4ccc(S(=O)(=O)O)cc4)c4ccc([nH]4)c(-c4ccc(S(=O)(=O)O)cc4)c4nc(c(-c5ccc(S(=O)(=O)O)cc5)c5ccc2[nH]5)C=C4)C=C3)cc1 [TPPS4, meso-tetra-(4-sulfonatophenyl)-porphine dihydrochloride]
HAV
  inactivation of HAV in plasma: about 1 log
  inactivation of HAV in water: 2 logs
  reduction of HAV in plasma: 2 logs
[1]; [4]
  CHO colony count: 189 cfu/well
[1]; [5]
  CHO colony count: 320 cfu/well
[1]; [7]
  CHO colony count: 310 cfu/well
Coliphage MS2
  MS2 in the absence of light: unaffected
  coliphage MS2 after 10 minutes of contact: unaffected
  inactivation of coliphage MS2 in plasma: about 3 logs
  initial infectious test microbes remaining at the end of each experimental period: approximately 100%
  loss of infectivity without UV light: no loss of infectivity
E. coli B [2]; 10^−5 M in PBS, 1 minute
  log10 reduction of Escherichia coli B: 0.6 log10
  percentage reduction of Escherichia coli B: 75%
E. coli B [2]; 10^−5 M in PBS, 10 minutes
  log10 reduction of Escherichia coli B: 1.6 log10
  percentage reduction of Escherichia coli B: 97%
E. coli B [2]; 10^−5 M in PBS, 30 minutes
  log10 reduction of Escherichia coli B: > 5.5 log10
E. coli B [2]; porphyrin without long-wavelength UV light
  loss of infectivity of E. coli B in the absence of long-wavelength UV light: did not result in any loss of infectivity

## CCCC[n+]1ccc(-c2c3nc(c(-c4cc[n+](CCCC)cc4)c4ccc([nH]4)c(-c4cc[n+](CCCC)cc4)c4nc(c(-c5cc[n+](CCCC)cc5)c5ccc2[nH]5)C=C4)C=C3)cc1 [TPyPH2(N-Bu), tetrakis (4-n-butylpyridiniumyl) porphyrin]
HAV; 1 minute (first of five values)
  reduction of HAV: 0.1 log10
HAV; 10 minutes (second of five values)
  reduction of HAV: 1.5 log10
HAV; 30 minutes (third of five values)
  reduction of HAV: 1.6 log10
HAV; 90 minutes (last of five values)
  reduction of HAV: > 3.3 log10
HAV; fourth of five values, its time is not given
  reduction of HAV: 2.7 log10
[1]; [4]
  CHO colony count: no colony forming units detected
[1]; [6]
  CHO colony count: 186 cfu/well

## C=CC1=C(C)c2cc3[nH]c(cc4nc(cc5[nH]c(cc1n2)c(C)c5CCC(=O)O)C(CCC(=O)O)=C4C)c(C)c3C=C [protoporphyrin IX]
E. coli B [3]
  inactivation of E. coli B: 0.3 log10 cfu/ml

From patent publication US20020022215A1 (priority 2000, published 2002)
